Laboratory results reported in a melting point compilation (Tetko et al.; mined from patent text by program, amines drawn as free bases though some values may be those of a salt).

Compared with CC(Sc1nnnn1-c1ccccc1)C(=C(C#N)C#N)c1ccccc1 (configuration not stated), O=C1C(=CO)c2ccccc2N1c1ccccc1 is higher in melting point: 145 to 146 °C for the first, 192 to 195 °C for the second.

Compared with CC(C)(C)OC(=O)COC1=CC(=O)c2ccccc2C1=O, O=C(O)COc1coc2ccccc2c1=O is higher in melting point: 120 to 122 °C for the first, 154 to 164 °C for the second.

Compared with Fc1ccc(-c2cc(Cl)nc3c2CCCC3)cc1, N#Cc1ccc(Nn2cnnc2)cc1-c1ccc(F)cc1 is higher in melting point: 111 to 112 °C for the first, 231 to 234 °C for the second.

First: CCCc1[nH]c2ccc(OC)cc2c1C=O
Second: CCCC(=O)OCCOc1ccc2oc3cc(C#N)ccc3c(=O)c2c1
The melting point of the first is higher: 166 to 168 °C for the first, 145 to 147 °C for the second.

Compared with CC(=O)Nc1sc2c(c1C(=O)c1ccccc1)CCCC2, CC(C)S(=O)(=O)Nc1cc(C(=O)c2ccccc2)ccc1[N+](=O)[O-] is lower in melting point: 116 to 119 °C for the first, 115 to 116 °C for the second.

Compared with CCCc1c(C(=O)C(C)C)c2ccc(C(=O)OC)cc2n1Cc1ccccc1C#N, CC(C)S(=O)(=O)n1c(N)nc2ccc(C(=CBr)c3ccccc3)cc21 is higher in melting point: 159 to 161 °C for the first, 180 to 182 °C for the second.

First: CSCOc1cc(Cl)ccc1C=O
Second: N#CC(C(=O)CBr)c1cccc(Cl)c1 (configuration not stated)
The melting point of the first is lower: 67 to 68 °C for the first, 124 to 132 °C for the second.

First: O=C(NCc1cccnc1)c1ccc2n1Cc1ccccc1N(C(=O)/C=C/c1ccccc1)C2
Second: COC(=O)C[C@H](O)CC(=O)CCc1c(-c2ccc(F)cc2)c(-c2ccccc2)c(C(=O)Nc2ccccc2)n1C(C)C
The melting point of the first is higher: 175 °C for the first, 75 to 77 °C for the second.

First: CN(C)C=Nc1[nH]nc(-c2cccc([N+](=O)[O-])c2)c1C#N
Second: COc1cc(CCl)ccc1OCc1nc(-c2cccc([N+](=O)[O-])c2)oc1C
The melting point of the first is higher: 221 to 225 °C for the first, 166 to 168 °C for the second.

First: O=C1c2ccccc2C(=O)N1CCCn1ccnc1-c1ccccc1
Second: O=c1[nH]cc(-c2ccccc2)c2ncccc12
The melting point of the first is lower: 109 to 110 °C for the first, 260 to 263 °C for the second.

First: OCCCc1ccc(O)cc1
Second: CC(=O)c1ccc2cc(O)ccc2c1O
The melting point of the first is lower: 52 to 54 °C for the first, 195 to 200 °C for the second.

First: CO/C=C(/C(=O)OC)c1ccccc1COc1nc(C(F)(F)F)sc1C
Second: COc1cccc(OC)c1C(=O)Nc1nnc(-c2ccc(O)cc2)s1
The melting point of the first is lower: 59 °C for the first, greater than 260 °C for the second.

First: CC(CCBr)Oc1ccccc1 (configuration not stated)
Second: NC(=O)Cc1ccc(Oc2ccccc2)cc1
The melting point of the first is lower: 33 to 36 °C for the first, 161 to 163 °C for the second.

COc1ccc2c(c1)N(c1ccc(F)cc1)C(=O)C2(C)NC(=O)OCc1ccccc1 (configuration not stated) and N=C(N)c1ccc2cc(OC(=O)C3CCC(CNC(=O)OCc4ccccc4)CC3)ccc2c1 (configuration not stated) cannot be ordered by melting point: 167 to 169 °C for the first, 167 to 170 °C for the second.

First: CC(C)(C)NCC(O)COc1ccc(C(N)=O)cc1I (configuration not stated)
Second: CCCCCCCCc1ccc(OCC(O)Cn2ccc3cc(C(N)=O)ccc32)cc1 (configuration not stated)
The melting point of the first is lower: 111 to 114 °C for the first, 118 to 119 °C for the second.

First: COc1cccc(OC)c1Cc1c(O)ncnc1O
Second: COc1ncnc(OC)c1[N+](=O)[O-]
The melting point of the first is higher: greater than 245 °C for the first, 168 to 170 °C for the second.

First: c1ccc2sc(C3CCNCC3)cc2c1
Second: COc1ccc2nc(NCC3CCN(CC4COc5ccccc5O4)CC3)sc2c1 (configuration not stated)
The melting point of the first is lower: 82 to 84 °C for the first, 135 °C for the second.

First: CN(C)CCCC#Cc1cnc(NC(=O)OC(C)(C)C)nc1
Second: CCC(O)(c1ccc(OCCN(C)C)cc1)c1cccc(Cl)c1 (configuration not stated)
The melting point of the first is higher: 119 to 120 °C for the first, 108 to 109 °C for the second.

First: O=C1NC(=S)SC1=Cc1cc(Cl)c2c(c1)N(CCc1ccc(C(F)(F)F)cc1)C(=O)CO2
Second: CNC(=O)COc1cc(-n2c(=O)cc(C(F)(F)F)n(C)c2=O)c(F)cc1Cl
The melting point of the first is higher: 275 to 277 °C for the first, 190 to 192 °C for the second.

Compared with CC#CCOc1cc(Oc2cccc(F)c2)ncn1, CCc1cc(Oc2ncc(C(F)(F)F)cc2Cl)n[nH]1 is lower in melting point: 60.1 °C for the first, 55 to 57 °C for the second.

First: Cc1ccccc1-c1nc(N)ncc1-c1ccc(=O)n(C(C)C)n1
Second: CSc1cc2cnc(-c3ccccc3)n2c(SC)n1
The melting point of the first is higher: 203 °C for the first, 117 to 118 °C for the second.

First: Fc1ccc(C(c2ccc(F)cc2)N2CCN(CC=C3CCc4ccccc43)CC2)cc1
Second: COc1ccc(S(=O)(=O)N2CCc3cccc(-c4cccc(F)c4)c32)cc1
The melting point of the first is lower: 138 to 142 °C for the first, 180 to 181 °C for the second.

First: Clc1cnn2c(-c3ccccn3)ccnc12
Second: O=C1CCc2c1cnn2Cc1ccccc1
The melting point of the first is higher: 141 to 143 °C for the first, 92 to 93 °C for the second.

First: CC(C)(C)c1ccc(O)c(C2=CCCCC2)c1
Second: CC(C)(C)c1cc(OCc2ccc(C(=O)O)cc2)cc(C(C)(C)C)c1
The melting point of the first is lower: 90 to 93 °C for the first, 212 to 215 °C for the second.

First: COc1ccc(S(=O)(=O)N(CCC(C)C)CC(O)C(Cc2ccccc2)NC(=O)C(C)CS(C)(=O)=O)cc1 (configuration not stated)
Second: COC(=O)N(C)CCc1ccc([N+](=O)[O-])c(CS(=O)(=O)c2ccccc2)c1
The melting point of the first is higher: 125 to 129 °C for the first, 42 °C for the second.

First: COc1cc(I)c(CC(C)N2CCCC2)cc1OC (configuration not stated)
Second: NS(=O)(=O)c1ccccc1C(=S)N1CCCC1
The melting point of the first is lower: 87 to 88 °C for the first, 186 to 187 °C for the second.

N#Cc1ccc2c(c1)C1(c3ccccc3-2)c2ccccc2-c2ccc(C#N)cc21 and N#Cc1cccc(C2=Nc3ccc(C#Cc4ccc(F)cc4F)cc3NC(=O)C2)c1 cannot be ordered by melting point: 215 to 245 °C for the first, 240 to 246 °C for the second.

First: Cc1[nH]cnc1/C=C1\CCc2c(c3ccc(F)cc3n2C)C1=O
Second: Cc1ccc(-n2nc3c(cc2=O)CCCc2sc(CO)cc2-3)cc1
The melting point of the first is higher: 290 to 295 °C for the first, 158 to 159 °C for the second.

First: N#Cc1ccc(N2CCc3nc4cc(Cl)ccc4c(Cl)c3C2)nc1
Second: N#Cc1ccc2nc(C(=O)NCc3cccc(CNC(=O)Cc4nc[nH]n4)c3)[nH]c(=O)c2c1
The melting point of the first is lower: 171 to 173 °C for the first, 207 to 208 °C for the second.

First: Cc1nn(C)c(OC(=O)C(Cl)=C(Cl)Cl)c1C(=O)c1ccc(Cl)cc1Cl
Second: CCOC(=O)C1=C(C)NC(C)=C(C(=O)OCC)C1c1ccc(F)c(Br)c1
The melting point of the first is higher: 141 to 142 °C for the first, 118 to 119 °C for the second.

Compared with CC(C)(C)c1cc(-c2cc(C(C)(C)C)cc(C(C)(C)C)c2O)c(O)c(C(C)(C)C)c1, CC(C)(C)c1cc(-c2cncn2CCCO)cc(C(C)(C)C)c1O is lower in melting point: 190 to 195 °C for the first, 166 to 167 °C for the second.

First: C[C@@H]1OC(=O)[C@H]2C[C@H]3CCCC[C@@H]3[C@@H](O)[C@@H]12
Second: CC(C#N)(C(=O)NC1CCCCC1)c1ccccc1 (configuration not stated)
The melting point of the first is higher: 195 to 196 °C for the first, 76 to 78 °C for the second.

First: O=C(NC(=S)NC1Cc2ccccc2C1)c1ccccc1
Second: CC[C@@H](C)[C@H](N)C(O)(c1ccccc1)c1ccccc1
The melting point of the first is higher: 130 to 135 °C for the first, 128 to 129 °C for the second.

First: COC1C(O)C(CO)OC1n1ccc(=O)[nH]c1=O (configuration not stated)
Second: Cc1cn(C2CC(O)C(C(O)I)O2)c(=O)[nH]c1=O (configuration not stated)
The melting point of the first is lower: 158 to 159 °C for the first, 172 to 175 °C for the second.

Compared with Cc1cccc(Nc2cc(Cl)nc(SCC(=O)NC(C)C)n2)c1C, CNC(=O)NC(C)C(C)CC(=O)NS(=O)(=O)c1ccc(C)cc1 (configuration not stated) is lower in melting point: 156 to 158 °C for the first, 120 to 125 °C for the second.

First: CCOC(=O)CCc1ccc2oc(Cc3ccc4ccccc4c3)nc2c1
Second: C#CCOc1ccc2c(C)cc(=O)oc2c1C(=O)C=Cc1ccccc1
The melting point of the first is lower: 81 to 82 °C for the first, 140 to 142 °C for the second.

First: Cn1ncc(/C=C/C(=O)Nc2ccc(CCc3nnco3)cc2)c1-c1ccc(F)cc1
Second: CC(C)(C)c1ccc(Oc2nc(-c3ccc(Cl)cc3)c(CCC(=O)O)o2)cc1
The melting point of the first is higher: 177 to 178 °C for the first, 166 to 167 °C for the second.

First: CN(C)CCNC(=O)[C@H]1C[C@H](NC(=O)Nc2ccccc2)c2c(Cl)cc(Cl)cc2N1 (relative stereo)
Second: O=C(c1cccc(Cl)c1)c1cccc(Cl)c1
The melting point of the first is higher: 223 to 224 °C for the first, 117 °C for the second.

Compared with O=C1C=c2c(c3[nH]c4c(c3c3c2=CN=C3)CCCC4)C1, O=C=Nc1c2c(cc3c1CCC3)CCC2 is lower in melting point: greater than 300 °C for the first, 40 to 41 °C for the second.

First: COc1ccc(CN(C)CCCSc2ccc(NC(=O)c3cccc4c(=O)c5cccc(C)c5[nH]c34)cc2)cc1OC
Second: O=C(O)c1ccc(OCCNC(=O)C2Cc3ccccc3N2S(=O)(=O)c2ccc(-c3ccc(F)cc3F)cc2)cc1 (configuration not stated)
The melting point of the first is higher: 158 °C for the first, 92 °C for the second.

Compared with CC1(C)OC(=S)Nc2ccc(-c3cc(F)cc(Cl)c3)cc21, CN1C(C)(C)CC(NC(=O)c2ccc(-c3nc4ccc(Cl)cc4[nH]3)cc2)CC1(C)C is higher in melting point: 204 to 205 °C for the first, greater than 250 °C for the second.

Cc1cc2ccncc2c(=N)c2ccccc12 and O=C1N(Cc2nc3ccccc3s2)c2ccccc2C12COc1cc3c(cc12)OCCO3 (configuration not stated) cannot be ordered by melting point: 165 to 168 °C for the first, 164 to 166 °C for the second.

First: CC(C)(COc1ccc(-n2cc(C(=O)O)cn2)cc1C#N)C(=O)O
Second: COc1ccc(C(=O)O)c2cccc(S(=O)(=O)N(C)C)c12
The melting point of the first is higher: 230 to 233 °C for the first, 220 to 221 °C for the second.

First: O=C(Nc1ccc(I)cc1)c1ccncc1
Second: Cc1noc(C)c1C(=O)Nc1ccc(-n2nc(C(F)(F)F)cc2C2CC2)cc1
The melting point of the first is higher: 245 to 250 °C for the first, 170 to 172 °C for the second.

Compared with CCOc1ccc(-c2nc(-c3ccc(N4CCOCC4)c([N+](=O)[O-])c3)cs2)cc1OCC, CCOC(=O)N1CCn2c(nc(-c3ccncn3)cc2=O)C(NCc2ccc(OC)cc2)C1 (racemic) is higher in melting point: 119 to 120 °C for the first, 217 to 219 °C for the second.

First: Cc1cc2cc(C#N)c(=O)[nH]c2cc1C
Second: CNC(=O)C1=CC2(CCSCC2)Oc2ccc([N+](=O)[O-])cc21
The melting point of the first is higher: 300 °C for the first, 208 to 209 °C for the second.

First: Nc1nc2ccc(C(F)(F)C(F)(F)F)cc2s1
Second: O=P(O)(O)C(F)(F)c1ccc(CN(Cc2ccc(C(F)(F)P(=O)(O)O)cc2)S(=O)(=O)CCc2ccccc2)cc1
The melting point of the first is lower: 100 °C for the first, 181 to 183 °C for the second.

Compared with CC(C)(C)[Si](C)(C)Oc1ccc([N+](=O)[O-])cc1, CS(=O)(=O)ON=C(Cl)c1ccc(Cl)cc1 is higher in melting point: 36 to 38 °C for the first, 80 to 82 °C for the second.

First: O=C(N1CC2CCC(C1)O2)C12CC3CC(CC(C3)C1)C2
Second: O=C(C1CC1)N1CCC2C1CCCC2(O)c1ccc(Cl)cc1 (configuration not stated)
The melting point of the first is lower: 134 to 136 °C for the first, 167 to 169 °C for the second.

Compared with CCCc1c(OCCCC/C=C/c2ccc(C(=O)c3cccc(C(=O)O)c3)cc2CCC(=O)O)ccc2c1OCCC2=O, COc1cc(OCC(CO)CO)c(C=CC(=O)c2ccc(C(=O)O)cc2)cc1-c1cccs1 is higher in melting point: 105 to 109 °C for the first, 219 to 220 °C for the second.

Compared with CCCCCCCCCCCCCCCCCC(=O)Oc1cc(C=CC(=O)c2ccccc2)cc([N+](=O)[O-])c1O, CC(=O)N1CCN=C1Nc1cc(C(C)C)nn1C(C)C is higher in melting point: 112 to 118 °C for the first, 139 to 140 °C for the second.
